Earlier results as cited in patent US20120009125A1, “APOE4 AND APOJ BIOMARKER-BASED PREVENTION AND TREATMENT OF DEMENTIA” (priority 2010, published 2012).
Like-named read-outs stand apart in the source and are kept apart here.

What was measured:
HSPs = conditions: oral administration
Hsp70, Hsp90, and Hsp105 = conditions: cell model

SMILES: CC(=O)CC/C=C(\C)CC/C=C(\C)CC/C=C(\C)CCC=C(C)C [GGA, (9E;13E)-6,10,14,18-tetramethyl-5,9,13,17-nonadecatetraen-2-one]
- solubility in water: practically insoluble
- expression of HSPs in the central nervous system (HSPs): up-regulated
- levels of Hsp70, Hsp90, and Hsp105 (Hsp70, Hsp90, and Hsp105): increased
- amyloid oligomer levels and aggregates (amyloid oligomer): reduces
- amyloid oligomer levels and aggregates (amyloid oligomer; oral administration): reduces
- cell death (cell model): inhibited
